Counter-ions that a name gives are not always drawn.
First: Cc1c(C)c(C)c(S(=O)(=O)N[C@@H](Cc2nc3ccc(CCCNc4ccccn4)cc3c(=O)[nH]2)C(=O)O)c(C)c1C (as salt: HCl) [Compound 11, (αS)-3,4-dihydro-4-oxo-α-[[(2,3,4,5,6-pentamethylphenyl)sulfonyl]amino]-6-[3-(2-pyridinylamino)propyl]-2-quinazolinepropanoic Acid]
Second: Cc1c(C)c(C)c(S(=O)(=O)N[C@@H](Cc2nc3ccc(/C=C/CNc4ccccn4)cc3c(=O)[nH]2)C(=O)O)c(C)c1C (as salt: TFA) [Compound 10, (αS)-3,4-dihydro-4-oxo-α-[[(2,3,4,5,6-pentamethylphenyl)sulfonyl]amino]-6-[(1E)-3-(2-pyridinylamino)-1-propenyl]-2-quinazolinepropanoic Acid]
The melting point of the first is higher: 218 to 221 °C for the first, 148 to 151 °C for the second.

`Cc1c(C)c(C)c(S(=O)(=O)N[C@@H](Cc2nc3ccc(/C=C/CNC4=NCCN4)cc3c(=O)[nH]2)C(=O)O)c(C)c1C` (as salt: TFA) [Compound 1, 6-[(1E)-3-[(4,5-dihydro-1H-imidazol-2-yl)amino]-1-propenyl]-(αS)-3,4-dihydro-4-oxo-α-[[(2,3,4,5,6-pentamethylphenyl)sulfonyl]amino]-2-quinazolinepropanoic Acid] gave a melting point of 131 to 135 °C.

Source: patent US7081460B2, “Quinazoline and quinazoline-like compounds for the treatment of integrin-mediated disorders” (Ortho-McNeil Pharmaceutical, Inc., priority 2001, dated 2006)
